In ChEMBL document CHEMBL5729670, “Method for controlling hematophagous or sap-feeding arthropods” (2023):

Assay: thallium-flux assay: The thallium flux assay is an in vitro method of measuring conductance through a potassium ion channel. Potassium channels are also permeable to thallium ions. The modulation of a K+ channel will thus increase or decrease thallium ion flow through the channel and thus, alter the observed fluorescence of a thallium-specific indicator dye.Stably transfected T-Rex-HEK-293-AnKir1 cells were cultured overnight in 384-well plates in media containing DMEM, 10% dialyzed FBS, and 1 μg/mL tetracycline to induce channel expression. The next day the cell culture medium was replaced with a dye-loading solution containing assay buffer (Hanks Balanced Salt Solution with 20 mM HEPES, pH 7.3), 0.01% (w/v) Pluronic F-127 (Life Technologies, Carlsbad, Calif.), and 1.2 μM of the thallium-sensitive dye Thallos-AM (TEFlabs, Austin, Tex.). After 1 hr incubation at room temperature, the dye-loading solution was washed from the plates and replaced with 20 μL/well of assay buffer. The plates were transferred to a Hamamatsu Functional Drug Screening System 6000 (FDSS6000; Hamamatsu, Tokyo, Japan), where 20 μL/well of each of the test compounds in assay buffer was added and allowed to incubate with the cells for 20 min. […]

IC50: 15 µM
SMILES: O=C(Cn1nc(C(F)(F)F)c2c1CCCC2)N1CCc2ccccc2C1
